The target of this assay is T1, ZAP-70 (Homo sapiens, UniProt P43403).
T1 construct: endogenous in cells; host or cells: cell lysate
T1 sequence (P43403 1-619): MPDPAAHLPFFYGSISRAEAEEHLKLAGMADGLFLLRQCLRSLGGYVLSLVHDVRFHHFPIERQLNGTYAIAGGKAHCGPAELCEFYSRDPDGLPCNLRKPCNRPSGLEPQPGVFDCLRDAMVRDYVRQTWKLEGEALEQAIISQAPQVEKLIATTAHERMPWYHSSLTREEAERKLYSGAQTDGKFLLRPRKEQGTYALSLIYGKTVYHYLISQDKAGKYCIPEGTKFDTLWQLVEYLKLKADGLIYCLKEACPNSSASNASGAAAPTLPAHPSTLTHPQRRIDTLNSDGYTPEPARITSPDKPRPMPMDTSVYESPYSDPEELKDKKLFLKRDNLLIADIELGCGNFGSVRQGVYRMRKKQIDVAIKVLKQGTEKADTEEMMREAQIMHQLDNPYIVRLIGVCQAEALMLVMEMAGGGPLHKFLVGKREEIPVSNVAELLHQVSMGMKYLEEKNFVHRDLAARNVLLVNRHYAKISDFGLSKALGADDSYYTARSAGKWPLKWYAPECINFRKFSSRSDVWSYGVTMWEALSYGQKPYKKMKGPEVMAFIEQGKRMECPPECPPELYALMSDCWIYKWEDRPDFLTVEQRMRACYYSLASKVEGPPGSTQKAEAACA
Briefly: ZAP-70 kinobeads assay. Conditions: cell lysate, affinity matrix with immobilized aminopyrido-pyrimidine ligand 24, dot blot detection. In kind it is binding. As for the experimental part: The compounds of the present invention as described in the previous examples can be tested in the ZAP-70 kinobeads assay as described (EP-A 1862802 and WO-A 2007/137867). Briefly, test compounds (at various concentrations) and the affinity matrix with the immobilized aminopyrido-pyrimidine ligand 24 are added to cell lysate aliquots and allowed to bind to the proteins in the lysate sample. After the incubation time the beads with captured proteins are separated from the lysate. Bound proteins are then eluted and the presence ZAP-70 is detected and quantified using a specific antibody in a dot blot procedure and the Odyssey infrared detection system.

pIC50: −log10 of the molar value.

Usually pIC50 stands for −log10 of the IC50, conventionally taken in molar units. The low end stands for a large IC50, the high end for a small IC50. In turn, `COc1cc(Nc2ncc(F)c(Nc3cccc(C)c3N(CCNC=O)S(C)(=O)=O)n2)cc(OC)c1OC` [Example 20, N-(2-(N-(2-(5-fluoro-2-(3,4,5-trimethoxyphenylamino)pyrimidin-4-ylamino)-6-methylphenyl)methylsulfonamido)ethyl)formamide] had a pIC50 of 6.00 to 7.00. Compound `COCCN(c1c(C)cccc1Nc1nc(Nc2cc(OC)c(OC)c(OC)c2)ncc1F)S(C)(=O)=O` [Example 13] had a pIC50 of 5.00 to 6.00. To `COc1ccc(Nc2nc(Nc3cc(OC)c(OC)c(OC)c3)ncc2Cl)c(N(CCCNC=O)S(C)(=O)=O)c1` [Example 12, N-(3-(N-(2-(5-chloro-2-(3,4,5-trimethoxyphenylamino)pyrimidin-4-ylamino)-5-methoxyphenyl)methylsulfonamido)propyl)formamide] belongs ≥ 7.00; to `COc1cc(Nc2ncc(F)c(Nc3cccc(C)c3N(CC#N)S(C)(=O)=O)n2)cc(OC)c1OC` [Example 17, N-(cyanomethyl)-N-(2-(5-fluoro-2-(3,4,5-trimethoxyphenylamino)pyrimidin-4-ylamino)-6-methylphenyl)methanesulfonamide], 5.00 to 6.00. To `COc1ccc(Nc2nc(Nc3cc(OC)c(OC)c(OC)c3)ncc2Cl)c(N(CCNC=O)S(C)(=O)=O)c1` [Example 8] belongs ≥ 7.00; to `COc1cc(Nc2ncc(F)c(Nc3cccc(C)c3N(CCNC(C)=O)S(C)(=O)=O)n2)cc(OC)c1OC` [Example 26, N-(2-(N-(2-(5-fluoro-2-(3,4,5-trimethoxyphenylamino)pyrimidin-4-ylamino)-6-methylphenyl)methylsulfonamido)ethyl)acetamide], 6.00 to 7.00; to `COc1cc(Nc2ncc(Cl)c(Nc3ccccc3N(CCNC=O)S(C)(=O)=O)n2)cc(OC)c1OC` [Example 2, N-(2-(N-(2-(5-chloro-2-(3,4,5-trimethoxyphenylamino)pyrimidin-4-ylamino)phenyl)methylsulfonamido)ethyl)formamide], ≥ 7.00.

Consider `COc1cc(Nc2ncc(F)c(Nc3cccc(C)c3N(CCO)S(C)(=O)=O)n2)cc(OC)c1OC` [Example 15, N-(2-(5-fluoro-2-(3,4,5-trimethoxyphenylamino)pyrimidin-4-ylamino)-6-methylphenyl)-N-(2-hydroxyethyl)methanesulfonamide], for which the pIC50 is 5.00 to 6.00. Regarding `COc1ccc(Nc2nc(Nc3cc(OC)c(OC)c(OC)c3)ncc2Cl)c(N(C[C@@H]2CCC(=O)N2)S(C)(=O)=O)c1` [Example 4, (S)—N-(2-(5-chloro-2-(3,4,5-trimethoxyphenylamino)pyrimidin-4-ylamino)-5-methoxyphenyl)-N-((5-oxopyrrolidin-2-yl)methyl)methanesulfonamide], the negative logarithm of the IC50 (pIC50) is ≥ 7.00. As to `COc1ccc(Nc2nc(Nc3cc(OC)c(OC)c(OC)c3)ncc2Cl)c(N(CC#N)S(C)(=O)=O)c1` [Example 6, N-(2-(5-chloro-2-(3,4,5-trimethoxyphenylamino)pyrimidin-4-ylamino)-5-methoxyphenyl)-N-(cyanomethyl)methanesulfonamide], the pIC50 was ≥ 7.00.

On to `COc1cc(Nc2ncc(F)c(Nc3cccc(C)c3N(CCN)S(C)(=O)=O)n2)cc(OC)c1OC` [Example 19, N-(2-aminoethyl)-N-(2-(5-fluoro-2-(3,4,5-trimethoxyphenylamino)pyrimidin-4-ylamino)-6-methylphenyl)methanesulfonamide], for which the pIC50 is 6.00 to 7.00.

As for `COc1ccc(Nc2nc(Nc3cc(OC)c(OC)c(OC)c3)ncc2Cl)c(N(CN2CCCC2=O)S(C)(=O)=O)c1` [Example 3, N-(2-(5-chloro-2-(3,4,5-trimethoxyphenylamino)pyrimidin-4-ylamino)-5-methoxyphenyl)-N-((2-oxopyrrolidin-1-yl)methyl)methanesulfonamide], the negative logarithm of the IC50 (pIC50) is 5.00 to 6.00. Regarding `COc1ccc(Nc2ncc(Cl)c(Nc3ccc(OC)cc3N(CCNC=O)S(C)(=O)=O)n2)c(OC)c1` [Example 11], the pIC50 was 6.00 to 7.00.

The values above are taken from patent publication US20120165332A1, “SULFONAMIDES AND SULFAMIDES AS ZAP-70 INHIBITORS” (Cellzome Limited, priority 2009, published 2012).
